Results reported in publication PMC2584044, “Key biosynthetic gene subfamily recruited for pheromone production prior to the extensive radiation of Lepidoptera” (BMC Evolutionary Biology, 2008).

Target: T1, Lca-QPAQ (Lca-Z9-QPAQ) (Lampronia capitella, UniProt B6CBS2)
T1 construct: full-length ORF, 353 residues, YEpOLEX in S. cerevisiae ole1
T1 sequence (B6CBS2 1-352): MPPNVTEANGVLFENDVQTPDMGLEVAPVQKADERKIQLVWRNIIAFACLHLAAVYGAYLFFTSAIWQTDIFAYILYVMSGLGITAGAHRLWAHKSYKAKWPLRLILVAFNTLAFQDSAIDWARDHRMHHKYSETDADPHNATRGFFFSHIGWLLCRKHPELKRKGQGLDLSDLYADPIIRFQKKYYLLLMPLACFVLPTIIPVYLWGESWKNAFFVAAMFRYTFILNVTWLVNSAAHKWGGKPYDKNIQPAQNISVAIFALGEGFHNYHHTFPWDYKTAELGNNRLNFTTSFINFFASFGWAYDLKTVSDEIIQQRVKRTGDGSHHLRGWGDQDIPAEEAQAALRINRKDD
Experiment: product GC-MS with DMDS adducts, yeast ole1 complementation
Assay type: cell-based
Details: endogenous yeast acyl (as acyl-CoA); 30 °C; product (Z)-9-hexadecenoic acid

Q: How did the “product GC-MS with DMDS adducts, yeast ole1 complementation” value turn out when CCCCCCCCCCCCCCCC(=O)O [palmitic acid] was run?
A: Lca-QPAQ and Hass-KPSE are encoding Z9-desaturases displaying a substrate preference for palmitic acid
